Data from US20190029975A1, “TOCOPHEROL AND TOCOTRIENOL QUINONE DERIVATIVES FOR INCREASING THIOSULFATE LEVELS OR DECREASING HYDROGEN SULFIDE LEVELS” (BIOELECTRON TECHNOLOGY CORPORATION, priority 2016, published 2019).

Legend:
[1] = tested on: mouse striatal cells (Q7); assay: Thiosulfate production in EPI-743 treated ATG-stressed Q7 cells; type: cell-based; details: for effect on cysteine levels: Q7 cells, 10 μM ATG or 100 nM EPI-743; for Cysteine Calculated Concentration / Thiosulfate Peak Area: 100 nM 743
Protocol: Conditionally immortalized wild-type mouse striatal cells (Q7, passage #45) were seeded at 300,000 cells per well in 6-well plates containing 3 mL/well of DMEM (High Glucose) containing 10% FBS, penicillin/streptomycin, and 400 μg/mL G418. After an overnight incubation at 33C, the cells were treated for 4-5 hours with either EPI-743 (100 nM final concentration) or DMSO vehicle (1% final concentration). Aurothioglucose (final concentration 10 μM) was added prior to an 18-hour treatment period. Cells were washed 1× with Hanks' buffered saline solution (HBSS), counted, and then resuspended in monobromobimane capping solution.
Cysteine and thiosulfate levels are shown below. Aurothioglucose (ATG) is an inhibitor of thioredoxin reductase-1 and has been repeatedly used as a tool compound to increase oxidative stress. […] Cysteine levels were unaffected by ATG or EPI-743 treatment.

[2] = Plasma thiosulfate in Leigh Syndrome patients treated with EPI-743 (EPI743-12-002 Leigh Trial); type: in vivo, human
Protocol: As part of the Edison EPI743-12-002 Leigh Trial, 17 Leigh Syndrome patients were treated with EPI-743 (15 mg/kg up to 200 mg three times a day) for 12 months. An additional 14 Leigh Syndrome patients received placebo for the first six months, and were randomized to either 5 or 15 mg/kg up to 200 mg three times a day EPI-743 for the subsequent six months.
Plasma thiosulfate concentrations were measured at various time points, over a 12 month period, for patients on drug and placebo. Plasma samples were collected from Leigh Syndrome patients, and the samples processed according to the procedure described in Example 2. […]
(§1) The samples were analyzed by measuring the absolute concentration of H2S, thiosulfate, and glutathione persulfide using 6-point calibration curves. […]
(§2) An API mass spectrometer (AB6500 Qtrap) coupled to a high performance liquid chromatograph (Eksigent MicroLC 200 Plus) was used to quantify H2S, thiosulfate, and glutathione persulfide and their internal standards from all biological fluids and calibrants. […]
(§3) Bromobimane (BB) and Bromobimane internal standard (B-IS) were injected before each calibration curve. […] Statistical calculations and analytical run acceptance were determined based on criteria set forth in the FDA/EMA guidance where applicable. Fundamental parameters such as accuracy, precision, selectivity, sensitivity, reproducibility, and stability were monitored.

[3] = tested on: SQOR products (thiosulfate, glutathione persulfide); assay: Correlation of plasma H2S with the SQOR products thiosulfate and glutathione persulfide in Leigh Syndrome patients; type: in vivo, human; details: all subjects at all time points
Protocol: A quantitative method for the analysis of H2S, thiosulfate, and glutathione persulfide in biological matrices via liquid chromatography coupled to atmospheric pressure ionization (API) tandem mass spectrometry (LC-MS/MS) is provided.
Patient plasma samples were collected with informed consent from the patients described in Example 1. The sulfur containing compounds were derivatized with bromo bimane to stabilize the samples for measurement. Samples were stored at −80° C. and shipped for analysis to Edison under dry ice.
as §1, §2
as §3, with “monitored. […]” for “monitored.”

OC[C@H]1O[C@H]([S-])[C@H](O)[C@@H](O)[C@@H]1O.[Au+] [ATG, Aurothioglucose, reference compound]
effect on cysteine levels [1]: unaffected

CC(C)=CCC/C(C)=C/CC/C(C)=C/CC[C@@](C)(O)CCC1=C(C)C(=O)C(C)=C(C)C1=O [EPI-743]
increase in mean plasma thiosulfate ([2]; Leigh Syndrome patients, across all time points over 12 months, versus baseline, placebo virtually no change): greater than 100% | mean plasma thiosulfate ([2]; subjects treated with EPI-743, across all time points, baseline 0.21 μM): 0.54 µM | H2S/glutathione persulfide ratio versus untreated patients [3]: lower | H2S/thiosulfate ratio versus untreated patients [3]: lower | Cysteine Calculated Concentration ([1]; 10 μM ATG, 1% DMSO control 0.272): 0.281 µM | Thiosulfate Peak Area ([1]; 10 μM ATG, 1% DMSO control 3466): 37903 | increase in thiosulfate, EPI-743 treated versus untreated cells ([1]; ATG-stressed cells (10 μM ATG), 100 nM EPI-743): approximately 10 fold | Cysteine Calculated Concentration ([1]; No Stress, 1% DMSO control 0.251): 0.264 µM | Thiosulfate Peak Area ([1]; No Stress, 1% DMSO control 2881): 3656 | effect on cysteine levels [1]: unaffected
